# Patent US8063048B2, “Acetylenyl-pyrazolo-pyrimidine derivatives” (Hoffmann-La Roche Inc., priority 2005, dated 2011)
row,Structure (SMILES),melting point
1,"Cc1cc(-c2cc(C(F)(F)F)n3ncc(C#Cc4ncc(S(N)(=O)=O)s4)c3n2)ccc1Cl [Example 104, 2-[5-(4-Chloro-3-methyl-phenyl)-7-trifluoromethyl-pyrazolo[1,5-a]pyrimidin-3-ylethynyl]-thiazole-5-sulfonic acid amide]",123 °C
2,"FC(F)(F)c1ccc(-c2cc(C(F)(F)F)n3ncc(C#Cc4cnc(Cl)nc4)c3n2)cc1 [Example 182, 3-(2-Chloro-pyrimidin-5-ylethynyl)-7-trifluoromethyl-5-(4-trifluoromethyl-phenyl)-pyrazolo[1,5-a]pyrimidine]",157 to 159 °C
3,"COc1cncc(C#Cc2cnn3c(C(F)(F)F)cc(-c4ccc(C(F)(F)F)cc4)nc23)c1 [Example 57, 3-(5-Methoxy-pyridin-3-ylethynyl)-7-trifluoromethyl-5-(4-trifluoromethyl-phenyl)-pyrazolo[1,5-a]pyrimidine]",232 to 234 °C
4,"Cc1cc(-c2cc(C(F)F)n3ncc(C#Cc4cc(S(N)(=O)=O)c(F)cc4F)c3n2)ccc1Cl [Example 174, 5-[5-(4-Chloro-3-methyl-phenyl)-7-difluoromethyl-pyrazolo[1,5-a]pyrimidin-3-ylethynyl]-2,4-difluoro-benzenesulfonamide]",270 °C
5,"CC(C)(O)c1ccc(C#Cc2cnn3c(C(F)(F)F)cc(-c4ccc(C(F)(F)F)cc4)nc23)cc1 [Example 202, 2-{4-[7-Trifluoromethyl-5-(4-trifluoromethyl-phenyl)-pyrazolo[1,5-a]pyrimidin-3-ylethynyl]-phenyl}-propan-2-ol]",170 to 171 °C
6,"NS(=O)(=O)c1cccc(C#Cc2cnn3c(C(F)(F)F)cc(-c4cccc(C(F)(F)F)c4)nc23)c1 [Example 118, 3-[7-Trifluoromethyl-5-(3-trifluoromethyl-phenyl)-pyrazolo[1,5-a]pyrimidin-3-ylethynyl]-benzenesulfonamide]",193 °C
7,"OCc1ccc(C#Cc2cnn3c(C(F)(F)F)cc(-c4ccc(C(F)(F)F)cc4)nc23)cc1 [Example 184, {4-[7-Trifluoromethyl-5-(4-trifluoromethyl-phenyl)-pyrazolo[1,5-a]pyrimidin-3-ylethynyl]-phenyl}-methanol]",200 to 202 °C
8,"NS(=O)(=O)c1cncc(C#Cc2cnn3c(C4CC4)cc(-c4ccc(Cl)cc4)nc23)c1 [Example 66, 5-[5-(4-Chloro-phenyl)-7-cyclopropyl-pyrazolo[1,5-a]pyrimidin-3-ylethynyl]-pyridine-3-sulfonic acid amide]",252 to 254 °C
9,"CCOc1cc(-c2cc(C(F)(F)F)n3ncc(C#Cc4ccc(N)nc4)c3n2)ccc1C(F)(F)F [Example 189, 5-[5-(3-Ethoxy-4-trifluoromethyl-phenyl)-7-trifluoromethyl-pyrazolo[1,5-a]pyrimidin-3-ylethynyl]-pyridin-2-ylamine]",218 °C
10,"FC(F)(F)c1cc(-c2ccc(Cl)cc2)nc2c(C#Cc3cccnc3)cnn12 [Example 21, 5-(4-Chloro-phenyl)-3-pyridin-3-ylethynyl-7-trifluoromethyl-pyrazolo[1,5-a]pyrimidine]",214 to 215 °C
11,"Nc1ncc(C#Cc2cnn3c(C(F)(F)F)cc(-c4ccc(C(F)(F)F)cc4)nc23)cn1 [Example 205, 5-[7-Trifluoromethyl-5-(4-trifluoromethyl-phenyl)-pyrazolo[1,5-a]pyrimidin-3-ylethynyl]-pyrimidin-2-ylamine]",255 to 256 °C
12,"Cc1cc(-c2cc(C(F)F)n3ncc(C#Cc4ccc(S(N)(=O)=O)s4)c3n2)ccc1Cl [Example 172, 5-[5-(4-Chloro-3-methyl-phenyl)-7-difluoromethyl-pyrazolo[1,5-a]pyrimidin-3-ylethynyl]-thiophene-2-sulfonic acid amide]",216 °C
13,"FC(F)(F)c1ccc(-c2cc(C(F)(F)F)n3ncc(C#Cc4ccnc(Cl)n4)c3n2)cc1 [Example 183, 3-(2-Chloro-pyrimidin-4-ylethynyl)-7-trifluoromethyl-5-(4-trifluoromethyl-phenyl)-pyrazolo[1,5-a]pyrimidine]",192 to 195 °C
14,"Cc1cc(-c2cc(C(F)(F)F)n3ncc(C#Cc4ccc(S(N)(=O)=O)cc4)c3n2)ccc1Cl [Example 110, 4-[5-(4-Chloro-3-methyl-phenyl)-7-trifluoromethyl-pyrazolo[1,5-a]pyrimidin-3-ylethynyl]-benzenesulfonamide]",275 °C
15,"CN(C)S(=O)(=O)c1ccc(C#Cc2cnn3c(C(F)F)cc(-c4ccc(C(F)(F)F)cc4)nc23)cc1 [Example 136, 4-[7-Difluoromethyl-5-(4-trifluoromethyl-phenyl)-pyrazolo[1,5-a]pyrimidin-3-ylethynyl]-N,N-dimethyl-benzenesulfonamide]",211 to 212 °C
16,"Oc1cncc(C#Cc2cnn3c(C(F)(F)F)cc(-c4ccc(C(F)(F)F)cc4)nc23)c1 [Example 58, 5-[7-Trifluoromethyl-5-(4-trifluoromethyl-phenyl)-pyrazolo[1,5-a]pyrimidin-3-ylethynyl]-pyridin-3-ol]",258 to 260 °C
17,"O=S(=O)(O)c1cnc(C#Cc2cnn3c(C(F)(F)F)cc(-c4ccc(C(F)(F)F)cc4)nc23)s1 [Example 20, 2-[7-Trifluoromethyl-5-(4-trifluoromethyl-phenyl)-pyrazolo[1,5-a]pyrimidin-3-ylethynyl]-thiazole-5-sulfonic acid]",> 295 °C
18,"CCOc1cccc(-c2cc(C(F)F)n3ncc(C#Cc4cccc(S(N)(=O)=O)c4)c3n2)c1 [Example 201, 3-[7-Difluoromethyl-5-(3-ethoxy-phenyl)-pyrazolo[1,5-a]pyrimidin-3-ylethynyl]-benzenesulfonamide]",167 to 168 °C
19,"O=S(=O)(NCCO)c1cccc(C#Cc2cnn3c(C(F)F)cc(-c4ccc(C(F)(F)F)cc4)nc23)c1 [Example 147, 3-[7-Difluoromethyl-5-(4-trifluoromethyl-phenyl)-pyrazolo[1,5-a]pyrimidin-3-ylethynyl]-N-(2-hydroxy-ethyl)-benzenesulfonamide]",113 to 115 °C
20,"CC(CO)(CO)NS(=O)(=O)c1cncc(C#Cc2cnn3c(C(F)F)cc(-c4ccc(C(F)(F)F)cc4)nc23)c1 [Example 26, 5-[7-Difluoromethyl-5-(4-trifluoromethyl-phenyl)-pyrazolo[1,5-a]pyrimidin-3-ylethynyl]-pyridine-3-sulfonic acid (2-hydroxy-1-hydroxymethyl-1-methyl-ethyl)-amide]",204 to 206 °C
21,"CC(C)(CO)NS(=O)(=O)c1ccc(C#Cc2cnn3c(C(F)F)cc(-c4ccc(C(F)(F)F)cc4)nc23)s1 [Example 169, 5-[7-Difluoromethyl-5-(4-trifluoromethyl-phenyl)-pyrazolo[1,5-a]pyrimidin-3-ylethynyl]-thiophene-2-sulfonic acid (2-hydroxy-1,1-dimethyl-ethyl)-amide]",157 °C

# Continued, values first:
row,melting point,Structure (SMILES)
1,281 to 282 °C,"Nc1ccc(C#Cc2cnc3c(F)cc(-c4ccc(C(F)(F)F)cc4)cn23)cn1 [Example 239, 5-[8-Fluoro-6-(4-trifluoromethyl-phenyl)-imidazo[1,2-a]pyridin-3-ylethynyl]-pyridin-2-ylamine]"
2,294 °C,"Cc1cc(-c2ccc(C(F)(F)F)cc2)cn2c(C#Cc3cncc(S(N)(=O)=O)c3)cnc12 [Example 229, 5-[8-Methyl-6-(4-trifluoromethyl-phenyl)-imidazo[1,2-a]pyridin-3-ylethynyl]-pyridine-3-sulfonic acid amide]"
3,231 to 234 °C,"Cc1cc(-c2ccc(Cl)cc2)cn2c(C#Cc3ccc(N)nc3)cnc12 [Example 210, 5-[6-(4-Chloro-phenyl)-8-methyl-imidazo[1,2-a]pyridin-3-ylethynyl]-pyridin-2-ylamine]"
4,226 °C,"CN1CCN(S(=O)(=O)c2ccc(C#Cc3cnn4c(C(F)F)cc(-c5ccc(C(F)(F)F)cc5)nc34)s2)CC1 [Example 252, 7-Difluoromethyl-3-[5-(4-methyl-piperazine-1-sulfonyl)-thiophen-2-ylethynyl]-5-(4-trifluoromethyl-phenyl)-pyrazolo[1,5-a]pyrimidine]"
5,162 °C,"CCOc1cccc(-c2cc(C(F)F)n3ncc(C#Cc4ccc(N)nc4)c3n2)c1 [Example 208, 5-[7-Difluoromethyl-5-(3-ethoxy-phenyl)-pyrazolo[1,5-a]pyrimidin-3-ylethynyl]-pyridin-2-ylamine]"
6,279 to 280 °C,"Nc1ncc(C#Cc2cnc3c(F)cc(-c4ccc(Cl)cc4)cn23)cn1 [Example 242, 5-[6-(4-Chloro-phenyl)-8-fluoro-imidazo[1,2-a]pyridin-3-ylethynyl]-pyrimidin-2-ylamine]"
7,238 °C,"CC(=O)Nc1ccc(C#Cc2cnn3c(C(F)(F)F)cc(-c4ccc(C(F)(F)F)cc4)nc23)cc1 [Example 207, N-{4-[7-Trifluoromethyl-5-(4-trifluoromethyl-phenyl)-pyrazolo[1,5-a]pyrimidin-3-ylethynyl]-phenyl}-acetamide]"
8,148 to 150 °C,"CC(C)(O)c1ccc(C#Cc2cnn3c(C4CC4)cc(-c4ccc(Cl)cc4)nc23)cc1 [Example 300, 2-{4-[5-(4-Chloro-phenyl)-7-cyclopropyl-pyrazolo[1,5-a]pyrimidin-3-ylethynyl]-phenyl}-propan-2-ol]"
9,243 to 246 °C,"Nc1ncc(C#Cc2cnn3c(C4CC4)cc(-c4ccc(Cl)cc4)nc23)cn1 [Example 313, 5-[5-(4-Chloro-phenyl)-7-cyclopropyl-pyrazolo[1,5-a]pyrimidin-3-ylethynyl]-pyrimidin-2-ylamine]"
10,261 to 263 °C,"NS(=O)(=O)c1ccc(C#Cc2cnc3c(C(F)(F)F)cc(-c4ccc(C(F)(F)F)cc4)nn23)s1 [Example 236, 5-[8-Trifluoromethyl-6-(4-trifluoromethyl-phenyl)-imidazo[1,2-b]pyridazin-3-ylethynyl]-thiophene-2-sulfonic acid amide]"
11,177 °C,"O=S(=O)(NCc1cccnc1)c1ccc(C#Cc2cnn3c(C(F)(F)F)cc(-c4ccc(C(F)(F)F)cc4)nc23)s1 [Example 273, 5-[7-Trifluoromethyl-5-(4-trifluoromethyl-phenyl)-pyrazolo[1,5-a]pyrimidin-3-ylethynyl]-thiophene-2-sulfonic acid (pyridin-3-ylmethyl)-amide]"
